Source: patent US12421254B2, “KRAS modulators and uses thereof” (Quanta Therapeutics, Inc., priority 2023, dated 2025)

Assays:
[1] = molecular target: GST-tagged KRAS-G12D (2-169) (Homo sapiens, UniProt P01116, G12D); assay: Nucleotide exchange assay (NEA), SOS-mediated, HTRF, KRAS G12D; format: biochemical; conditions: Table 4; IC50 extracted at 30 min; 20 nM SOScat; read-out: NEA G12D IC50
Method in brief: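 SOS1cat-driven loading of fluorescent GTP-DY-647P1 (150 nM) onto GST-KRAS-G12D (2-169, 0.25 nM) read by time-resolved FRET; SOScat 20 nM, compound preincubated with KRAS 1 h at RT. Signal blanked to no-SOS reactions, normalized to DMSO; IC50 fitted from the 30-min read.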

[2] = molecular target: GST-tagged KRAS-G12V (2-169) (Homo sapiens, UniProt P01116, G12V); assay: Nucleotide exchange assay (NEA), SOS-mediated, HTRF, KRAS G12V; format: biochemical; conditions: Table 4; IC50 extracted at 90 min; 80 nM SOS
GST-tagged KRAS-G12V (2-169), sequence (P01116 2-169 isoform P01116-2 G12V): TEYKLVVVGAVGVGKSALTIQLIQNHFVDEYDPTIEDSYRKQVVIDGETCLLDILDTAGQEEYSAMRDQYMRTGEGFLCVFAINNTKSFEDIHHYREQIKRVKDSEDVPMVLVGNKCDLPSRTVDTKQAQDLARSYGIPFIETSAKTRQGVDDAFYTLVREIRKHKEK
Method in brief: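 Exchange onto fluorescent GTP-DY-647P1 (150 nM final) catalysed by 80 nM SOS1cat was followed by Tb-anti-GST HTRF at RT for up to 90 min, after 1 h compound pre-incubation with 0.25 nM GST-tagged KRAS-G12V (2-169), pH 7.3. DMSO = 0%, no-SOS blank = 100%; 4-parameter IC50 taken at 90 min.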

GST-tagged KRAS-G12D (2-169), sequence (P01116 2-169 isoform P01116-2 G12D): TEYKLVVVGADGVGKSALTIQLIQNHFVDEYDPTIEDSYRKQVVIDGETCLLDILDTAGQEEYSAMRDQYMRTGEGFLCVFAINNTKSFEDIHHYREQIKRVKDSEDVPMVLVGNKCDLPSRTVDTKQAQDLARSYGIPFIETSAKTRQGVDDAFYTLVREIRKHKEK

Structure (SMILES)	IC50 [1] [nM]	IC50 [2] [nM]
CC(c1ccn(C)n1)N(C)c1nc(OC[C@@]23CCCN2C[C@H](F)C3)nc(N2CC3(CCc4sc(N)c(C#N)c43)C2)n1 (stereo partly drawn) [Compound 119, 2-amino-1′-[4-[[(2R,8S)-2-fluoro-1,2,3,5,6,7-hexahydropyrrolizin-8-yl]methoxy]-6-[methyl-[1-(1-methylpyrazol-3-yl)ethyl]amino]-1,3,5-triazin-2-yl]spiro[5,6-dihydrocyclopenta[b]thiophene-4,3′-azetidine]-3-carbonitrile]	1000 to 20000	1000 to 20000
CC(c1ccccc1N)N(C)c1nc(OC[C@@]23CCCN2C[C@H](F)C3)nc(N2CC3(CCc4sc(N)c(C#N)c43)C2)n1 (stereo partly drawn) [Compound 121, 2′-amino-1-(4-((1-(2-aminophenyl)ethyl)(methyl)amino)-6-(((2R,7aS)-2-fluorotetrahydro-1H-pyrrolizin-7a(5H)-yl)methoxy)-1,3,5-triazin-2-yl)-5′,6′-dihydrospiro[azetidine-3,4′-cyclopenta[b]thiophene]-3′-carbonitrile]	≥ 20000	≥ 20000
CC(c1ccnn1C)N(C)c1nc(OC[C@@]23CCCN2C[C@H](F)C3)nc(N2CC3(CCc4sc(N)c(C#N)c43)C2)n1 (stereo partly drawn) [Compound 125, 2-amino-1′-[4-[[(2R,8S)-2-fluoro-1,2,3,5,6,7-hexahydropyrrolizin-8-yl]methoxy]-6-[methyl-[i-(2-methylpyrazol-3-yl)ethyl]amino]-1,3,5-triazin-2-yl]spiro[5,6-dihydrocyclopenta[b]thiophene-4,3′-azetidine]-3-carbonitrile]	1000 to 20000	10 to 100
C[C@@]1(O)CCCN(c2nc(OC[C@@]34CCCN3C[C@H](F)C4)nc(N3CC4(C3)c3c(sc(N)c3C#N)C[S+]4[O-])n2)C1 (stereo partly drawn) [Compound 126, 2-amino-5-oxo-1′-[4-[[(2R,8S)-2-fluoro-1,2,3,5,6,7-hexahydropyrrolizin-8-yl]methoxy]-6-[(3R)-3-hydroxy-3-methyl-1-piperidyl]-1,3,5-triazin-2-yl]spiro[6H-thieno[3,4-b]thiophene-4,3′-azetidine]-3-carbonitrile]	10 to 100	1000 to 20000
CC(C1=NN=CC1Cl)N(C)c1nc(OC[C@@]23CCCN2C[C@H](F)C3)nc(N2CC3(CCc4sc(N)c(C#N)c43)C2)n1 (stereo partly drawn) [Compound 127, 2-amino-1′-[4-[1-(4-chloro-1H-pyrazol-5-yl)ethyl-methyl-amino]-6-[[(2R,8S)-2-fluoro-1,2,3,5,6,7-hexahydropyrrolizin-8-yl]methoxy]-1,3,5-triazin-2-yl]spiro[5,6-dihydrocyclopenta[b]thiophene-4,3′-azetidine]-3-carbonitrile]	1000 to 20000	100 to 1000
N#Cc1c(N)sc2c1C1(CC2)CN(c2nc(OC[C@@]34CCCN3C[C@H](F)C4)nc(N(CCO)Cc3cc[nH]n3)n2)C1 [Compound 131, 2-amino-1′-[4-[[(2R,8S)-2-fluoro-1,2,3,5,6,7-hexahydropyrrolizin-8-yl]methoxy]-6-[2-hydroxyethyl(1H-pyrazol-5-ylmethyl)amino]-1,3,5-triazin-2-yl]spiro[5,6-dihydrocyclopenta[b]thiophene-4,3′-azetidine]-3-carbonitrile]	100 to 1000	10 to 100
CN(Cc1cc(C(N)=O)nn1C)c1nc(OC[C@@]23CCCN2C[C@H](F)C3)nc(N2CC3(CCc4sc(N)c(C#N)c43)C2)n1 [Compound 135, 5-[[[4-(2-amino-3-cyano-spiro[5,6-dihydrocyclopenta[b]thiophene-4,3′-azetidine]-1′-yl)-6-[[(2R,8S)-2-fluoro-1,2,3,5,6,7-hexahydropyrrolizin-8-yl]methoxy]-1,3,5-triazin-2-yl]-methyl-amino]methyl]-1-methyl-pyrazole-3-carboxamide]	100 to 1000	100 to 1000
CC(c1c[nH]nc1Cl)N(C)c1nc(OC[C@@]23CCCN2C[C@H](F)C3)nc(N2CC3(CCc4sc(N)c(C#N)c43)C2)n1 (stereo partly drawn) [Compound 140, 2-amino-1′-[4-[1-(3-chloro-1H-pyrazol-4-yl)ethyl-methyl-amino]-6-[[(2R,8S)-2-fluoro-1,2,3,5,6,7-hexahydropyrrolizin-8-yl]methoxy]-1,3,5-triazin-2-yl]spiro[5,6-dihydrocyclopenta[b]thiophene-4,3′-azetidine]-3-carbonitrile]	1000 to 20000	100 to 1000
CCN(c1nc(OC[C@@]23CCCN2C[C@H](F)C3)nc(N2CC3(C2)SCc2sc(N)c(C#N)c23)n1)C(C)c1cccnc1N (stereo partly drawn) [Compound 144, 2-amino-1′-[4-[1-(2-amino-3-pyridyl)ethyl-ethyl-amino]-6-[[(2R,8S)-2-fluoro-1,2,3,5,6,7-hexahydropyrrolizin-8-yl]methoxy]-1,3,5-triazin-2-yl]spiro[6H-thieno[3,4-b]thiophene-4,3′-azetidine]-3-carbonitrile]	< 10	< 10
CC(=O)CC(=O)N1[C@@H]2CC[C@H]1CN(c1nc(OC[C@@]34CCCN3C[C@H](F)C4)nc(N3CC4(C3)SCc3sc(N)c(C#N)c34)n1)C2 [Compound 145, 2-amino-1′-[4-[[(2R,8S)-2-fluoro-1,2,3,5,6,7-hexahydropyrrolizin-8-yl]methoxy]-6-[(1R,5S)-8-(3-oxobutanoyl)-3,8-diazabicyclo[3.2.1]octan-3-yl]-1,3,5-triazin-2-yl]spiro[6H-thieno[3,4-b]thiophene-4,3′-azetidine]-3-carbonitrile]	1000 to 20000	100 to 1000
CN(Cc1cnsc1)c1nc(OC[C@@]23CCCN2C[C@H](F)C3)nc(N2CC3(CCc4sc(N)c(C#N)c43)C2)n1 [Compound 147, 2-amino-1′-[4-[[(2R,8S)-2-fluoro-1,2,3,5,6,7-hexahydropyrrolizin-8-yl]methoxy]-6-[isothiazol-4-ylmethyl(methyl)amino]-1,3,5-triazin-2-yl]spiro[5,6-dihydrocyclopenta[b]thiophene-4,3′-azetidine]-3-carbonitrile]	100 to 1000	10 to 100
CC(c1nccnc1O)N(C)c1nc(OC[C@@]23CCCN2C[C@H](F)C3)nc(N2CC3(CCc4sc(N)c(C#N)c43)C2)n1 (stereo partly drawn) [Compound 150, 2-amino-1′-[4-[[(2R,8S)-2-fluoro-1,2,3,5,6,7-hexahydropyrrolizin-8-yl]methoxy]-6-[1-(3-hydroxypyrazin-2-yl)ethyl-methyl-amino]-1,3,5-triazin-2-yl]spiro[5,6-dihydrocyclopenta[b]thiophene-4,3′-azetidine]-3-carbonitrile]	1000 to 20000	100 to 1000
N#Cc1c(N)sc2c1C1(CC2)CN(c2nc(OC[C@@]34CCCN3C[C@H](F)C4)nc(N(CCO)Cc3c[nH]nc3Cl)n2)C1 [Compound 151, 2-amino-1′-[4-[(3-chloro-1H-pyrazol-4-yl)methyl-(2-hydroxyethyl)amino]-6-[[(2R,8S)-2-fluoro-1,2,3,5,6,7-hexahydropyrrolizin-8-yl]methoxy]-1,3,5-triazin-2-yl]spiro[5,6-dihydrocyclopenta[b]thiophene-4,3′-azetidine]-3-carbonitrile]	1000 to 20000	100 to 1000
N#Cc1c(N)sc2c1C1(CC2)CN(c2nc(OC[C@@]34CCCN3C[C@H](F)C4)nc(N(CCO)Cc3c(F)ccnc3N)n2)C1 [Compound 154, 2-amino-1′-[4-[(2-amino-4-fluoro-3-pyridyl)methyl-(2-hydroxyethyl)amino]-6-[[(2R,8S)-2-fluoro-1,2,3,5,6,7-hexahydropyrrolizin-8-yl]methoxy]-1,3,5-triazin-2-yl]spiro[5,6-dihydrocyclopenta[b]thiophene-4,3′-azetidine]-3-carbonitrile]	10 to 100	< 10
CC(c1cncnc1O)N(C)c1nc(OC[C@@]23CCCN2C[C@H](F)C3)nc(N2CC3(CCc4sc(N)c(C#N)c43)C2)n1 (stereo partly drawn) [Compound 155, 2-amino-1′-[4-[[(2R,8S)-2-fluoro-1,2,3,5,6,7-hexahydropyrrolizin-8-yl]methoxy]-6-[1-(4-hydroxypyrimidin-5-yl)ethyl-methyl-amino]-1,3,5-triazin-2-yl]spiro[5,6-dihydrocyclopenta[b]thiophene-4,3′-azetidine]-3-carbonitrile]	1000 to 20000	1000 to 20000
CO/N=C(\C(C)=O)C(=O)N1[C@@H]2CC[C@H]1CN(c1nc(OC[C@@]34CCCN3C[C@H](F)C4)nc(N3CC4(C3)SCc3sc(N)c(C#N)c34)n1)C2 [Compound 161, 2-amino-1′-[4-[[(2R,8S)-2-fluoro-1,2,3,5,6,7-hexahydropyrrolizin-8-yl]methoxy]-6-[(1R,5S)-8-[(2Z)-2-methoxyimino-3-oxo-butanoyl]-3,8-diazabicyclo[3.2.1]octan-3-yl]-1,3,5-triazin-2-yl]spiro[6H-thieno[3,4-b]thiophene-4,3′-azetidine]-3-carbonitrile]	1000 to 20000	100 to 1000
N#Cc1c(N)sc2c1C1(CN(c3nc(OC[C@@]45CCCN4C[C@H](F)C5)nc(Oc4cn[nH]c4)n3)C1)SC2 [Compound 164, 2-amino-1′-[4-[[(2R,8S)-2-fluoro-1,2,3,5,6,7-hexahydropyrrolizin-8-yl]methoxy]-6-(1H-pyrazol-4-yloxy)-1,3,5-triazin-2-yl]spiro[6H-thieno[3,4-b]thiophene-4,3′-azetidine]-3-carbonitrile]	100 to 1000	10 to 100
N#Cc1c(N)sc2c1C1(CN(c3nc(OC[C@@]45CCCN4C[C@H](F)C5)nc(Oc4cc[nH]n4)n3)C1)SC2 [Compound 165, 2-amino-1′-[4-[[(2R,8S)-2-fluoro-1,2,3,5,6,7-hexahydropyrrolizin-8-yl]methoxy]-6-(1H-pyrazol-3-yloxy)-1,3,5-triazin-2-yl]spiro[6H-thieno[3,4-b]thiophene-4,3′-azetidine]-3-carbonitrile]	1000 to 20000	100 to 1000
